Data as given in patent US9215868B2, “Low-foam preparations for crop protection” (Bayer Intellectual Property GmbH, priority 2006, dated 2015).

Test system: leaves of monocotyledonous crop plants such as corn and dicotyledonous crop plants such as apples
Assay: Leaf penetration of water-soluble leaf fertilisers such as urea
Format: in vivo
Conditions: urea 0.1 to 2% in spray liquor, in presence of 0.05 to 1% of one of the alkyl ether sulfates according to the invention; within a number of days
Text: In the case of foliar application of urea (0.1 to 2% in the spray liqour) to leaves of monocotyledonous crop plants such as corn and also to dicotyledonous crop plants such as apples, the rate of foliar uptake was increased within a number of days by a factor of at least two in the presence of 0.05 to 1% of one of the alkyl ether sulfates according to the invention.

NC(N)=O [urea]
factor of increase of rate of foliar uptake: at least two
